Experimental data from patent publication US20240239821A1, “N-ACYL FOSMIDOMYCIN PRODRUG ANALOGS AS NOVEL ANTIINFECTIVE AGENTS” (THE GEORGE WASHINGTON UNIVERSITY, priority 2021, published 2024).
Like-named read-outs stand apart in the source and are kept apart here.

Key:
[1] = system: P falciparum strain 3D7; assay: microbe, parasite or virus in culture; type: cell-based, Plasmodium falciparum
Description: P falciparum strain 3D7 (wild-type, WT) was obtained through MR4 as part of the BEi Resources Repository, NIAID, NIH (www.mr4.org). AP falciparum strain containing increased levels of MEP pathway metabolites, had]
(MRA-1257), and its isogenic compliment, had]+ Pfl-Iadl-GFP (MRA-1258), were generated in strain 3D7, as reported (Guggisberg et al.). Parasites were cultured in a 2% suspension of human erythrocytes and RPMI 1640 (Sigma) medium supplemented with 27 mM sodium bicarbonate, 11 mM glucose, 5 mM HEPES, I mM sodium pyruvate, 0.37 mM hypoxanthine, 0.01 mM thymidine, 10 μg/mL gentamicin, and 0.5% Albumax (Gibco) at 37° C., 5% 02/5% CO2/90% N2 atmosphere.

[2] = molecular target: T1, P. falciparum DXR (Plasmodium falciparum, UniProt Q8IKG4); assay: Plasmodium falciparum DXR enzyme IC50; type: biochemical
T1 construct: His6 (N); made in house; host or cells: Escherichia coli Rosetta2(DE3)
T1 sequence (Q8IKG4 73-488): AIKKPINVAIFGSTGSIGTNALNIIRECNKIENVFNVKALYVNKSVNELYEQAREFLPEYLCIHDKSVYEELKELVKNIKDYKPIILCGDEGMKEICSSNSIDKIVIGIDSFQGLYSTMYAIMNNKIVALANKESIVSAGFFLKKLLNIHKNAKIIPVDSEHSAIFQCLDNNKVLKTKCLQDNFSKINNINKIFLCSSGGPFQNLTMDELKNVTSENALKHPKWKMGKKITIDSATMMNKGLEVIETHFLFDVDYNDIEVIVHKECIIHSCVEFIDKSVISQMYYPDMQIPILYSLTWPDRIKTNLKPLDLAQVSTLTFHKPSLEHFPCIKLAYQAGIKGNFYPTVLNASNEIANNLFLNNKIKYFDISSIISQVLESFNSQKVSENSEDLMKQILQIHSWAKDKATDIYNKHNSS
Description: Recombinant protein was expressed in Escherichia coli Rosetta2(DE3) cells obtained from Novagen (San Diego, CA). E. coli was cultured at 37° C. in Luria-Bertani (LB) media supplemented with 100 μg/mL ampicillin and 34 μg/ml chloramphenicol with constant shaking at 250 rpm. Agar (1.5% wt/vol) was added to prepare solid media.
Cloning. Expression, and Purification of P falciparum DXR
The P falciparum dxr gene was truncated to begin at Lys 75 to remove the apicoplast signaling sequence. A Pf 3D7 trophozoite cDNA library (MRA-297) was acquired from BEi resources and used as the template for amplification of the PIDXR gene. […] 3′ reverse and cloned into a pETl 00/D-TOPO vector to yield pPIDXR, facilitating the expression of an N-terminal His6-tagged protein.
The expression plasmid (pPIDXR) was separately transformed into chemically competent E. coli Rosetta2(DE3) cells for protein expression. To express the His-tagged protein, a 10 mL overnight seed culture was added to IL of LB media and then incubated with shaking at 37° C. and 250 rpm. At an OD600 of 1.8, protein expression was induced with addition of isopropyl b-D-thiogalactopyranoside (IPTG) to 0.5 mM and the culture was further incubated with shaking at 37° C. and 250 rpm for an additional 18 hours. Cells were harvested via centrifugation (4648×g, 20 min, 4° C.) and stored at −80° C. Protein was subsequently isolated and purified from the cells via chemical lysis and affinity chromatography.
Cells were lysed with lysis buffer A (100 mM Tris pH 8.0, 0.032% lysozyme, 3 mL per gram cell pellet), followed by lysis buffer B (0.1 M CaCh, 0.1 M MgCh, 0.1 M NaCl, 0.020% DNase, 0.3 mL per gram cell pellet).
The column was washed with 20 column volumes of Ix equilibrium buffer (50 mM HEPES pH 7.5, 300 mM NaCl), 10 column volumes of Ix wash buffer (50 mM HEPES pH 7.5, 300 mM NaCl, 10 mM imidazole), and 15 column volumes of 2× wash buffer (100 mM HEPES pH 7.5, 600 mM NaCl, 20 mM imidazole). The protein was eluted with 5 column volumes of Ix elution buffer (150 mM imidazole pH 7.0, 300 mM NaCl). Buffer was exchanged with 0.1 M Tris pH 7.5, I mM NaCl, 5 mM DTT during concentration by ultrafiltration. Protein concentration was determined using Advanced Protein Assay Reagent (Cytoskeleton, Denver CO) with y-globulins (Sigma-Aldrich) as the standard. Purified protein was visualized via Coomassie stained SDS-PAGE.

[3] = molecular target: T1, P. falciparum DXR; conditions: background statement; cited from earlier work
[4] = whole cell, read-out: P. f. IC50
[5] = recombinant His-tagged enzyme, read-out: P. f. DXR IC50
[6] = Plasmodium falciparum, 3D7, read-out: P. f. IC50

| SMILES | IC50 [1, 4] [µM] | IC50 [2, 5] [µM] | also measured |
| --- | --- | --- | --- |
| O=C(c1ccc(C(F)(F)F)cc1)N(O)C/C=C/P(=O)(O)O [Na/H, 4-trifluoromethylphenyl] | 2.5 | 0.146 | – |
| CC(=O)N(O)C/C=C/P(=O)(OCOC(=O)C(C)(C)C)OCOC(=O)C(C)(C)C [POM, CH3] | 0.018 | – | – |
| O=C(c1cccc(C(F)(F)F)c1)N(O)C/C=C/P(=O)(O)O [NH4,3-trifluoromethylphenyl] | – | 0.049 | – |
| O=C(c1cccc2ccccc12)N(O)C/C=C/P(=O)(O)O [Na/H, 1-naphthyl] | 5.48 | 1.8 | – |
| Cc1ccc(C(=O)N(O)C/C=C/P(=O)(O)O)cc1 [Na/H, 4-methylphenyl] | 1.39 | 0.164 | – |
| COc1ccc(C(=O)N(O)C/C=C/P(=O)(O)O)cc1 [NH4,4-methoxyphenyl] | 0.632 | – | – |
| O=C(c1ccncc1)N(O)C/C=C/P(=O)(O)O [Na/H, 4-pyridinyl] | 6.53 | 0.519 | – |
| O=C(c1ccc(F)cc1)N(O)C/C=C/P(=O)(O)O [NH4,4-fluorophenyl] | 0.173 | 0.038 | – |
| O=C(c1ccncc1)N(O)C/C=C/P(=O)(O)O [NH4,4-pyridinyl] | 5.39 | – | – |
| CC(C)(C)C(=O)OCOP(=O)(/C=C/CN(O)C=O)OCOC(=O)C(C)(C)C [POM, H] | 0.013 | – | – |
| CC(C)(C)c1ccc(C(=O)N(O)C/C=C/P(=O)(O)O)cc1 [Na/H, 4-t-butylphenyl] | 43.7 | 37.9 | – |
| CC(=O)N(O)CCCP(=O)(O)O [FR900098] | – | – | IC50 [3]: 0.024 µM |
| CC(C)(C)C(=O)OCOP(=O)(C/C=C/N(O)C(=O)c1ccccc1)OCOC(=O)C(C)(C)C [POM, phenyl, (E)-(((3-(N-hydroxybenzamido)allyl)phosphoryl)bis(oxy))bis(methylene)bis(2,2-dimethylpropanoate)] | 0.2 | – | – |
| O=C(OCOP(=O)(/C=C/CN(O)C(=O)c1ccccc1)OCOC(=O)c1ccccc1)c1ccccc1 [BOM, phenyl, [({[(E)-benzoyloxy]methoxy}[(1E)-3-(N-hydroxy-1-phenylformamido)prop-1-en-1-yl]phosphoryl)oxy]methyl benzoate] | 0.297 | – | – |
| O=CN(O)C/C=C/P(=O)(OCOC(=O)c1ccccc1)OCOC(=O)c1ccccc1 [BOM, H] | 0.042 | – | – |
| O=C(c1cccc(C(F)(F)F)c1)N(O)C/C=C/P(=O)(O)O [Na/H, 3-trifluoromethylphenyl] | 0.188 | 0.048 | – |
| O=C(c1cc(Cl)cc(Cl)c1)N(O)C/C=C/P(=O)(O)O [Na/H, 3,5-dichlorophenyl, Sodium hydrogen [(1E)-3-[1-(3,5-dichlorophenyl)—N-hydroxyformamido]prop-1-en-1-yl]phosphonate] | – | – | IC50 [1, 6]: 0.17 µM; IC50 [2]: 0.064 µM |
| CC(=O)N(O)C/C=C/P(=O)(OCOC(=O)c1ccccc1)OCOC(=O)c1ccccc1 [BOM, CH3] | 0.011 | – | – |
| O=C(c1cc(Cl)cc(Cl)c1)N(O)C/C=C/P(=O)(O)O [NH4,3,5-dichlorophenyl] | 0.218 | – | – |
| O=C(c1ccc(Cl)c(Cl)c1)N(O)C/C=C/P(=O)(O)O [NH4,3,4-dichlorophenyl] | 0.129 | – | – |
| O=C(c1cccc(F)c1)N(O)C/C=C/P(=O)(O)O [NH4,3-fluorophenyl] | 0.352 | – | – |
| O=C(c1cccc(Cl)c1)N(O)C/C=C/P(=O)(O)O [Na/H, 3-chlorophenyl] | 0.279 | 0.158 | – |
| O=C(c1ccc2ccccc2c1)N(O)C/C=C/P(=O)(O)O [Na/H, 2-naphthyl] | 1.62 | 0.471 | – |
| O=C(c1ccc(F)cc1)N(O)C/C=C/P(=O)(O)O [Na/H, 4-fluorophenyl] | 0.121 | 0.041 | – |
| O=C(c1cccc(Cl)c1)N(O)C/C=C/P(=O)(O)O [NH4,3-chlorophenyl] | 0.116 | – | – |
| O=C(c1ccccc1)N(O)C/C=C/P(=O)(O)O [NH4, phenyl, Diammonium [(1E)-3-(N-hydroxy-1-phenylformamido)prop-1-en-1-yl]phosphonate] | – | – | IC50 [1, 6]: 0.273 µM; IC50 [2]: 0.081 µM |
| O=C(c1ccc(-c2ccccc2)cc1)N(O)C/C=C/P(=O)(O)O [Na/H, 4-biphenyl] | 4.38 | 0.29 | – |
